Patent publication US20010009931A1, “Protective varnish for dentin” (priority 1997, published 2001)

Experiments:
bacteria = details: long-term experiments; cited from earlier work
[1] = Leaching test of cured plaques in artificial saliva (Ringer solution), UV/Vis spectroscopy; type: physicochemical
Description: These plaques were light-cured and stored in artificial saliva (Ringer solution) for 20 days at 37° C. By UV/Vis spectroscopy, no triclosan could be found in the artificial saliva.
Again, plaques were made from a mixture of the varnish components except for the solvent ethanol. These plaques were light-cured and stored in artificial saliva (Ringer solution) for 14 days at 37° C. By UV/Vis spectroscopy, some triclosan could be found in the artificial saliva.

SMILES: Oc1cc(Cl)ccc1Oc1ccc(Cl)cc1Cl [triclosan, 2,4,4′-trichloro-2′-hydroxydiphenyl ether]
- development of bacterial resistance (bacteria): no development of bacterial resistance
- triclosan embedded in the plaque leached out ([1]; plaque with 6.25 wt % triclosan based on resin mixture, 20 days at 37° C.): less than 0.1 wt %
- leaching of the overall triclosan content of the plaque ([1]; plaque with 40 wt % triclosan, 14 days at 37° C.): 0.2 wt %
